Test results: patent publication US7923450B2, “Modulators for amyloid beta” (Hoffmann-La Roche Inc., priority 2008, dated 2011)
Counter-ions that a name gives are not always drawn.

Tested on: γ-secretase
Test: Cellular γ-secretase assay (Aβ42 secretion)
Type: cell-based
Settings: inhibition of Aβ42 secretion; human neuroglioma H4 cells overexpressing human APP; 22 hrs incubation; read-out: EC50 in vitro
Experimental: Cellular γ-Secretase Assay
Human neuroglioma H4 cells overexpressing human APP were plated at 30,000 cells/well/200 μl in 96-well plates in IMDM media containing 10% FCS, 0.2 mg/l Hygromycin B and incubated for 2 h at 37° C., 5% CO2 prior to adding test compounds.
Compounds for testing were dissolved in 100% Me2SO yielding in a 10 mM stock solution. Typically 12 μl of these solutions were further diluted in 1000 μl of IMDM media (w/o FCS,). Sub sequential 1:1 dilutions gave a ten point dose response curve. 100 μl of each dilution was added to the cells in 96-well plates. Appropriate controls using vehicle only and reference compound were applied to this assay. The final concentration of Me2SO was 0.4%.
After incubation for 22 hrs at 37° C., 5% CO2, 50 μl supernatant was transferred into round-bottom 96-well polypropylene plates for detection of Aβ42. 50 μl assay buffer (50 mM Tris/Cl, pH 7.4, 60 mM NaCl, 0.5% BSA, 1% TWEEN 20) was added to the wells followed by the addition of 100 μl of detection antibody (ruthenylated Aβ42-specific antibody BAP15 0.0625 μg/mL in assay buffer). 50 μl of a premix of capture antibody (biotinylated 6E10 antibody, 1 μg/mL) and Steptavidin-coated magnetic beads (Dynal M-280, 0.125 mg/mL) were preincubated for 1 hr at room temperature before adding the assay plates. Assay plates were incubated on a shaker for 3 hrs at room temperature and finally read in the Bioveris M8 Analyser according to the manufacturer's instructions (Bioveris).
EC50 values for inhibition of Aβ42 secretion were calculated by nonlinear regression fit analysis using XLfit 4.0 software (IDBS).

Compound	EC50 [nM]
COc1cc(Nc2nc3c(s2)CCCC3c2ccccc2)ccc1-c1cnco1 (centres unmarked) [Example 1, (3-Methoxy-4-oxazol-5-yl-phenyl)-(4-phenyl-4,5,6,7-tetrahydro-benzothiazol-2-yl)-amine]	300
COc1cc(Nc2nc3c(s2)CCCC3c2ccccc2)ccc1-n1cnc(C)c1 (centres unmarked) [Example 6, [3-Methoxy-4-(4-methyl-imidazol-1-yl)-phenyl]-(4-phenyl-4,5,6,7-tetrahydro-benzothiazol-2-yl)-amine]	40
COc1ccccc1C1CCCc2sc(Nc3ccc(-n4cnc(C)c4)c(OC)c3)nc21 (centres unmarked) [Example 7, [3-Methoxy-4-(4-methyl-imidazol-1-yl)-phenyl]-[4-(2-methoxy-phenyl)-4,5,6,7-tetrahydro-benzothiazol-2-yl]-amine]	110
COc1cc(Nc2nc3c(s2)CCCC3c2ccc(OC(F)(F)F)cc2)ccc1-n1cnc(C)c1 (centres unmarked) [Example 10, [3-Methoxy-4-(4-methyl-imidazol-1-yl)-phenyl]-[4-(4-trifluoromethoxy-phenyl)-4,5,6,7-tetrahydro-benzothiazol-2-yl]-amine]	100
COc1cc(Nc2nc3c(s2)CCCC3c2cc(F)ccc2F)ccc1-n1cnc(C)c1 (centres unmarked) [Example 12, [4-(2,5-Difluoro-phenyl)-4,5,6,7-tetrahydro-benzothiazol-2-yl]-[3-methoxy-4-(4-methyl-imidazol-1-yl)-phenyl]-amine]	160
COc1cc(Nc2nc3c(s2)CCCC3c2ccc(Cl)c(C(F)(F)F)c2)ccc1-n1cnc(C)c1 (centres unmarked) [Example 16, [4-(4-Chloro-3-trifluoromethyl-phenyl)-4,5,6,7-tetrahydro-benzothiazol-2-yl]-[3-methoxy-4-(4-methyl-imidazol-1-yl)-phenyl]-amine]	90
COc1cc(Nc2nc3c(s2)CCCC3(CC#N)c2ccc(Cl)cc2)ccc1-n1cnc(C)c1 (centres unmarked) [Example 19, {4-(4-Chloro-phenyl)-2-[3-methoxy-4-(4-methyl-imidazol-1-yl)-phenylamino]-4,5,6,7-tetrahydro-benzothiazol-4-yl}-acetonitrile]	260
Cc1cn(-c2ccc(Nc3nc4c(s3)CCCC4c3ccccc3)cc2C#N)cn1 (centres unmarked) [Example 21, 2-(4-Methyl-imidazol-1-yl)-5-(4-phenyl-4,5,6,7-tetrahydro-benzothiazol-2-ylamino)-benzonitrile]	120
COc1cc(Nc2nc3c(s2)CN(Cc2ccccc2)CC3c2ccccc2Cl)ccc1-n1cnc(C)c1 (centres unmarked) [Example 23]	70
COc1cc(Nc2nc3c(s2)CN(Cc2ccccc2)CC3c2ccc(Cl)c(F)c2)ccc1-n1cnc(C)c1 (centres unmarked) [Example 24, [5-Benzyl-7-(4-chloro-3-fluorophenyl)-4,5,6,7-tetrahydro-thiazolo[5,4-c]pyridin-2-yl]-[3-methoxy-4-(4-methyl-imidazol-1-yl)-phenyl]-amine]	70
COc1cc(Nc2nc3c(s2)CCCC3c2cc(C(F)(F)F)cc(C(F)(F)F)c2)ccc1-n1cnc(C)c1 (centres unmarked) [Example 29, [4-(3,5-Trifluoromethyl-phenyl)-4,5,6,7-tetrahydro-benzothiazol-2-yl]-[3-methoxy-4-(4-methyl-imidazol-1-yl)-phenyl]-amine]	100
COc1cc(Nc2ncc3c(n2)C(c2cc(F)c(F)c(F)c2)CCC3)ccc1-n1cnc(C)c1 (centres unmarked) [Example 69, [3-Methoxy-4-(4-methyl-imidazol-1-yl)-phenyl]-[8-(3,4,5-trifluoro-phenyl)-5,6,7,8-tetrahydro-quinazolin-2-yl]-amine]	250
COc1cc(Nc2ncc3c(n2)C(C2CCCCC2)CCC3)ccc1-n1cnc(C)c1 (centres unmarked) [Example 71, (8-Cyclohexyl-5,6,7,8-tetrahydro-quinazolin-2-yl)-[3-methoxy-4-(4-methyl-imidazol-1-yl)-phenyl]-amine]	470
COc1cc(Nc2ncc3c(n2)C(c2ccccc2)CN(C(C)C)C3)ccc1-n1cnc(C)c1 (centres unmarked) [Example 80, (6-Isopropyl-8-phenyl-5,6,7,8-tetrahydro-pyrido[4,3-#d!]pyrimidin-2-yl)-[3-methoxy-4-(4-methyl-imidazol-1-yl)-phenyl]-amine]	450

Further compounds by falling EC50, results first:

EC50 [nM]	Compound
500	COc1cc(Nc2ncc3c(n2)C(c2ccccc2)CN(C(C)=O)C3)ccc1-n1cnc(C)c1 (centres unmarked) [Example 42, 1-{2-[3-Methoxy-4-(4-methyl-imidazol-1-yl)-phenylamino]-8-phenyl-7,8-dihydro-5H-pyrido[4,3-d]pyrimidin-6-yl}-ethanone]
480	COc1cc(Nc2ncc3c(n2)C(c2ccccc2)CCC3)ccc1-n1cnc(C)c1 (centres unmarked) [Example 39, [3-Methoxy-4-(4-methyl-imidazol-1-yl)-phenyl]-(8-phenyl-5,6,7,8-tetrahydro-quinazolin-2-yl)-amine]
340	COc1cc(Nc2ncc3c(n2)C(c2ccccc2)CNC3)ccc1-n1cnc(C)c1 (centres unmarked) [Example 41, [3-Methoxy-4-(4-methyl-imidazol-1-yl)-phenyl]-(8-phenyl-5,6,7,8-tetrahydro-pyrido[4,3-d]pyrimidin-2-yl)-amine hydrochloride]
320	CCN1Cc2cnc(Nc3ccc(-n4cnc(C)c4)c(OC)c3)nc2C(c2ccccc2)C1 (centres unmarked) [Example 44, (6-Ethyl-8-phenyl-5,6,7,8-tetrahydro-pyrido[4,3-d]pyrimidin-2-yl)-[3-methoxy-4-(4-methyl-imidazol-1-yl)-phenyl]-amine]
270	COc1cc(Nc2ncc3c(n2)C(c2ccccc2)CN(C(=O)OC(C)(C)C)C3)ccc1-n1cnc(C)c1 (centres unmarked) [Example 40, 2-[3-Methoxy-4-(4-methyl-imidazol-1-yl)-phenylamino]-8-phenyl-7,8-dihydro-5H-pyrido[4,3-d]pyrimidine-6-carboxylic acid tert.-butyl ester]
210	Cc1cn(-c2ccc(Nc3nc4c(s3)CCCC4c3ccccc3)cc2O)cn1 (centres unmarked) [Example 66, 2-(4-Methyl-imidazol-1-yl)-5-(4-phenyl-4,5,6,7-tetrahydro-benzothiazol-2-ylamino)-phenol]
130	Cc1cn(-c2ccc(Nc3nc4c(s3)CCCC4c3ccccc3)cc2)cn1 (centres unmarked) [Example 18, [4-(4-Methyl-imidazol-1-yl)-phenyl]-(4-phenyl-4,5,6,7-tetrahydro-benzothiazol-2-yl)-amine]
130	Cc1cn(-c2ccc(Nc3ncc4c(n3)C(c3ccccc3)CCC4)cc2F)cn1 (centres unmarked) [Example 38, [3-Fluoro-4-(4-methyl-imidazol-1-yl)-phenyl]-(8-phenyl-5,6,7,8-tetrahydro-quinazolin-2-yl)-amine]
130	Cc1ncc(-c2ccc(Nc3nc4c(s3)CCCC4c3ccccc3)cc2)o1 (centres unmarked) [Example 68, [4-(2-Methyl-oxazol-5-yl)-phenyl]-(4-phenyl-4,5,6,7-tetrahydro-benzothiazol-2-yl)-amine]
120	COc1cc(Nc2nc3c(s2)CCCC3c2cc(C)ccc2C)ccc1-n1cnc(C)c1 (centres unmarked) [Example 13, [4-(2,5-Dimethyl-phenyl)-4,5,6,7-tetrahydro-benzothiazol-2-yl]-[3-methoxy-4-(4-methyl-imidazol-1-yl)-phenyl]-amine]
120	COc1cc(Nc2nc3c(s2)CCCC3c2cc(F)cc(F)c2)ccc1-n1cnc(C)c1 (centres unmarked) [Example 28, [4-(3,5-Difluoro-phenyl)-4,5,6,7-tetrahydro-benzothiazol-2-yl]-[3-methoxy-4-(4-methyl-imidazol-1-yl)-phenyl]-amine]
100	COc1cc(Nc2nc3c(s2)CCCC3c2ccc(C)c(C(F)(F)F)c2)ccc1-n1cnc(C)c1 (centres unmarked) [Example 9, [3-Methoxy-4-(4-methyl-imidazol-1-yl)-phenyl]-[4-(4-methyl-3-trifluoromethyl-phenyl)-4,5,6,7-tetrahydro-benzothiazol-2-yl]-amine]
100	COc1cc(Nc2nc3c(s2)CCCC3c2ccc(Cl)cc2Cl)ccc1-n1cnc(C)c1 (centres unmarked) [Example 25, [4-(2,4-Dichloro-phenyl)-4,5,6,7-tetrahydro-benzothiazol-2-yl]-[3-methoxy-4-(4-methyl-imidazol-1-yl)-phenyl]-amine]
90	COc1cc(Nc2nc3c(s2)CCCC3c2ccc(C)c(F)c2)ccc1-n1cnc(C)c1 (centres unmarked) [Example 15]
80	COc1cc(Nc2nc3c(s2)CCCC3c2cc(Cl)ccc2Cl)ccc1-n1cnc(C)c1 (centres unmarked) [Example 26, [4-(2,5-Dichloro-phenyl)-4,5,6,7-tetrahydro-benzothiazol-2-yl]-[3-methoxy-4-(4-methyl-imidazol-1-yl)-phenyl]-amine]
70	COc1cc(Nc2nc3c(s2)CCCC3c2ccccc2Cl)ccc1-n1cnc(C)c1 (centres unmarked) [Example 14, [4-(2-Chloro-phenyl)-4,5,6,7-tetrahydro-benzothiazol-2-yl]-[3-methoxy-4-(4-methyl-imidazol-1-yl)-phenyl]-amine]
70	COc1cc(Nc2nc3c(s2)CCCC3c2cc(Cl)cc(Cl)c2)ccc1-n1cnc(C)c1 (centres unmarked) [Example 27, [4-(3,5-Dichloro-phenyl)-4,5,6,7-tetrahydro-benzothiazol-2-yl]-[3-methoxy-4-(4-methyl-imidazol-1-yl)-phenyl]-amine]
50	Cc1cn(-c2ccc(Nc3nc4c(s3)CCCC4c3ccccc3)cc2F)cn1 (centres unmarked) [Example 5, [3-Fluoro-4-(4-methyl-imidazol-1-yl)-phenyl]-(4-phenyl-4,5,6,7-tetrahydro-benzothiazol-2-yl)-amine]
